# Patent US5936082A, “Metallocorrinoids as biologically compatible carriers of pharmacological agents” (The University of Akron, priority 1997, dated 1999)
# Assay: In vitro nitric oxide release and content by nitrogen oxides analyzer (Monitor Labs Model 8440)
# Type: physicochemical
# Method: The nitric oxide content and kinetic release profile, shown in FIG. 2, of nitrosylcobalamin was determined in vitro using a nitrogen oxides analyzer (Monitor Labs Model 8440). The amount of NO-"loading" was determined by examining the cumulative NO release, characterized at pH 4.9, 32° C., during a time span of 675.5 hours. The total NO released was 4,610 nmol NO, 38% loading based on the theoretical maximum of 11,890 nmol. The first twenty hours of NO release was characterized in great detail, with data readings taken every 15 minutes for the first eight hours and every half hour thereafter, resulting in the production of 260 nmol NO. […] At pH 10.0, NO release was undetected even though the sample size was increased to 20.6 mg.
substance,measurement,setting,value
nitrosylcobalamin,NO produced at pH 5.0,"5 mg sample, pH 5.0, 37° C., 86 hour time span",95.0 nmol
same,NO produced at pH 6.0,"5 mg sample, pH 6.0, 37° C., 86 hour time span",2.4 nmol
same,NO produced at pH 7.4,"5 mg sample, pH 7.4, 37° C., 86 hour time span",1.05 nmol
same,kinetic order of the cumulative NO release profile,"cumulative NO release, pH 4.9, 32° C., R^2 =0.9984",first order kinetics
same,calculated half life of NO release,"first order fit of cumulative NO release, pH 4.9, 32° C.",210 h
same,NO release in the first twenty hours,"first twenty hours, pH 4.9, 32° C.",260 nmol
same,"NO loading, based on the theoretical maximum of 11,890 nmol","from cumulative NO release at pH 4.9, 32° C., 675.5 hours",38%
same,total NO released (cumulative NO release),"pH 4.9, 32° C., time span of 675.5 hours","4,610 nmol"
same,NO release at pH 10.0,"pH 10.0, sample size 20.6 mg",undetected
